For test [1], the target named is Sphingosine 1-phosphate receptor 1 (Homo sapiens, UniProt P21453). Format: functional.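 Further: Tango beta-arrestin reporter U2OS cells stimulated with S1P near its EC80; inhibitor potency meaning antagonism of receptor activation by the natural agonist.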
Another test deals with T1, Hexokinase HKDC1 (Homo sapiens, UniProt Q2TB90).
T1 sequence (Q2TB90 whole entry): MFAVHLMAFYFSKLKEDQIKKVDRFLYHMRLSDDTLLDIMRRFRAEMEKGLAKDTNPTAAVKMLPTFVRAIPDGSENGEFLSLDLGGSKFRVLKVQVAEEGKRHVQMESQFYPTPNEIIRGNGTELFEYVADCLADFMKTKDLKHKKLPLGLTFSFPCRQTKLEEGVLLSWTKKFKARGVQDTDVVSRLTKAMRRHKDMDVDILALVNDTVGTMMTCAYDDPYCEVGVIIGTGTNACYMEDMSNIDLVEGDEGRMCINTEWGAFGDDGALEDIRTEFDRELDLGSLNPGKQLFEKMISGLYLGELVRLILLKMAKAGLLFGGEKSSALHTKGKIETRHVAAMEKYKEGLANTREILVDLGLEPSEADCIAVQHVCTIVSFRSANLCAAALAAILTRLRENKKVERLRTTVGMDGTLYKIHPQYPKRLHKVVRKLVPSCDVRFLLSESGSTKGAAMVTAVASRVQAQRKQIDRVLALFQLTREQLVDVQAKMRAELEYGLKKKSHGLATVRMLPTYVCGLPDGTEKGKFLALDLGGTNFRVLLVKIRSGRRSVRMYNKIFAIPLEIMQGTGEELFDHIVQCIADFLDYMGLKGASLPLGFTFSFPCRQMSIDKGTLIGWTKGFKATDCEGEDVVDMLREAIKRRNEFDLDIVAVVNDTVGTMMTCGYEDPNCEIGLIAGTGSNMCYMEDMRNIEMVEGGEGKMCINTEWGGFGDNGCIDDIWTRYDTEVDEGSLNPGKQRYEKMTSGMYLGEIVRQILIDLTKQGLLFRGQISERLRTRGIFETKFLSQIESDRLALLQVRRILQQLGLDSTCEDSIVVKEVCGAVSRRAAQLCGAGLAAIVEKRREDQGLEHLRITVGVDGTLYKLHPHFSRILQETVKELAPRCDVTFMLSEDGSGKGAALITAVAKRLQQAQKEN
Kind of test: inhibition of HKDC1 glucose phosphorylation – biochemical, W721R variant, dose response (AID 504729). Format: functional.

Test [2] in a line: luciferase reporter signal suppression in cells – H4 neuroglioma cells, luminescence, dose response (AID 1990). It is filed as functional, cell-based.
Test [3] concerns the target Non-receptor tyrosine-protein kinase TYK2 (Homo sapiens, UniProt P29597). Format: functional.
Test [4] has as its target Tyrosine-protein kinase JAK2 (Homo sapiens, UniProt O60674). It is filed as functional.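 Further: JAK2 tested as one member of a kinase panel.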
The target of test [5] is Ribosomal protein S6 kinase alpha-5 (Homo sapiens, UniProt O75582). It is filed as functional.
Chain of Ribosomal protein S6 kinase alpha-5 (O75582 whole entry): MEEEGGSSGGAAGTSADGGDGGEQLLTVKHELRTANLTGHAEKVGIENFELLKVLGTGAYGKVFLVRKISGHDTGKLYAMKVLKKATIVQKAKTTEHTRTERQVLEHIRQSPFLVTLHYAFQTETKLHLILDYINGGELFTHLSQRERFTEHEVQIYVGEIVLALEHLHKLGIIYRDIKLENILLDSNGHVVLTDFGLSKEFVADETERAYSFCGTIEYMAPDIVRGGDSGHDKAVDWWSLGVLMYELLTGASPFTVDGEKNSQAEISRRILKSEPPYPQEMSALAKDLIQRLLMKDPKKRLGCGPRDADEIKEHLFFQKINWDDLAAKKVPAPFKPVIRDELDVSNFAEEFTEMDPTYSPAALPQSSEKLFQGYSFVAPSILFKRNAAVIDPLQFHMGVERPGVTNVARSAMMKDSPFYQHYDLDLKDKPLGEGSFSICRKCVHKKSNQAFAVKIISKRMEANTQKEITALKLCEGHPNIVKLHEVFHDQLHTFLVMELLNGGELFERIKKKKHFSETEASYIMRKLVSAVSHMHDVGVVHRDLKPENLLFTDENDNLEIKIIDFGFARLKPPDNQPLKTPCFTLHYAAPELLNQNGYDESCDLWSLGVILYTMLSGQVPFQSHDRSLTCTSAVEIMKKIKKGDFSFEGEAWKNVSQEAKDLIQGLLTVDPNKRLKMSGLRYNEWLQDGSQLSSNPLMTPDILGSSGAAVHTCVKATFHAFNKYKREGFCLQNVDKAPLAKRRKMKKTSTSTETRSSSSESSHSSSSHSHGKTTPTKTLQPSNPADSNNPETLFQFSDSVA
Test [6] has as its target STE20-like serine/threonine-protein kinase (Homo sapiens, UniProt Q9H2G2). Format: functional.
A further test deals with INS1. Kind of test: INS-1E survival protection against cytokine death – cell-based, luminescence, retest, dose response (AID 449756).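 Further: cell death triggered by IL-1 beta plus TNF-alpha plus IFN-gamma mixture; protective hits raise ATP signal compared with cytokine alone wells.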 It is filed as functional. The settings on record: Rattus norvegicus.

Activity calls are given as the source filed them.

Chain of Tyrosine-protein kinase JAK2 (O60674 whole entry): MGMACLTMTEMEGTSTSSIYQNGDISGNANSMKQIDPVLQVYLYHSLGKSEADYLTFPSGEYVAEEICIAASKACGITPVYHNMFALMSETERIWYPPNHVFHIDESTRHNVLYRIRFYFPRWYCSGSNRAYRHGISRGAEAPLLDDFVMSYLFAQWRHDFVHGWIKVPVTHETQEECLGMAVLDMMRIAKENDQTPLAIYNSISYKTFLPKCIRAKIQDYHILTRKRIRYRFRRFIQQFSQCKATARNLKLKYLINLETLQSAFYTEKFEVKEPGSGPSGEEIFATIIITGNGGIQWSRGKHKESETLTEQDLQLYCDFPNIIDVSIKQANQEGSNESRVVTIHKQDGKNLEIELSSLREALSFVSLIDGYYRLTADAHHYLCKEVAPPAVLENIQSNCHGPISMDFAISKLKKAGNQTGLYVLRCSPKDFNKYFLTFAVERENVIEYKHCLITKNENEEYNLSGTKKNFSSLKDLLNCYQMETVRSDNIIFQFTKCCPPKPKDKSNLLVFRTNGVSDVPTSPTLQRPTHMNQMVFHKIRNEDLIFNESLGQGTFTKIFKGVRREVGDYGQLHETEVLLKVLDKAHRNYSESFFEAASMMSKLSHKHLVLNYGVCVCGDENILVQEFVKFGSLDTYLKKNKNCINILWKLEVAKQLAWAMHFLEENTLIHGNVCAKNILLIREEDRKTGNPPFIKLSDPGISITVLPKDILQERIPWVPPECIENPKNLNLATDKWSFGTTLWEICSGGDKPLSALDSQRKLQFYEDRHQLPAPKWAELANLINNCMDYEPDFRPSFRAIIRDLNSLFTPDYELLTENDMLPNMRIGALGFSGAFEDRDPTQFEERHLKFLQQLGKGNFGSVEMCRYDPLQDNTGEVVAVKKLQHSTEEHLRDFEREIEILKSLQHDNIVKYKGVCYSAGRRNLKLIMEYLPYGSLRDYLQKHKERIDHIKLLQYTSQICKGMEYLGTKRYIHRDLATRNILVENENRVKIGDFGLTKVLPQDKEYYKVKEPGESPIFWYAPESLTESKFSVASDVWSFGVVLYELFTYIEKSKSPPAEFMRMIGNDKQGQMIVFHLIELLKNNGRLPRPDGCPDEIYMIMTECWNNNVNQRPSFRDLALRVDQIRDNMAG
Chain of STE20-like serine/threonine-protein kinase (Q9H2G2 whole entry): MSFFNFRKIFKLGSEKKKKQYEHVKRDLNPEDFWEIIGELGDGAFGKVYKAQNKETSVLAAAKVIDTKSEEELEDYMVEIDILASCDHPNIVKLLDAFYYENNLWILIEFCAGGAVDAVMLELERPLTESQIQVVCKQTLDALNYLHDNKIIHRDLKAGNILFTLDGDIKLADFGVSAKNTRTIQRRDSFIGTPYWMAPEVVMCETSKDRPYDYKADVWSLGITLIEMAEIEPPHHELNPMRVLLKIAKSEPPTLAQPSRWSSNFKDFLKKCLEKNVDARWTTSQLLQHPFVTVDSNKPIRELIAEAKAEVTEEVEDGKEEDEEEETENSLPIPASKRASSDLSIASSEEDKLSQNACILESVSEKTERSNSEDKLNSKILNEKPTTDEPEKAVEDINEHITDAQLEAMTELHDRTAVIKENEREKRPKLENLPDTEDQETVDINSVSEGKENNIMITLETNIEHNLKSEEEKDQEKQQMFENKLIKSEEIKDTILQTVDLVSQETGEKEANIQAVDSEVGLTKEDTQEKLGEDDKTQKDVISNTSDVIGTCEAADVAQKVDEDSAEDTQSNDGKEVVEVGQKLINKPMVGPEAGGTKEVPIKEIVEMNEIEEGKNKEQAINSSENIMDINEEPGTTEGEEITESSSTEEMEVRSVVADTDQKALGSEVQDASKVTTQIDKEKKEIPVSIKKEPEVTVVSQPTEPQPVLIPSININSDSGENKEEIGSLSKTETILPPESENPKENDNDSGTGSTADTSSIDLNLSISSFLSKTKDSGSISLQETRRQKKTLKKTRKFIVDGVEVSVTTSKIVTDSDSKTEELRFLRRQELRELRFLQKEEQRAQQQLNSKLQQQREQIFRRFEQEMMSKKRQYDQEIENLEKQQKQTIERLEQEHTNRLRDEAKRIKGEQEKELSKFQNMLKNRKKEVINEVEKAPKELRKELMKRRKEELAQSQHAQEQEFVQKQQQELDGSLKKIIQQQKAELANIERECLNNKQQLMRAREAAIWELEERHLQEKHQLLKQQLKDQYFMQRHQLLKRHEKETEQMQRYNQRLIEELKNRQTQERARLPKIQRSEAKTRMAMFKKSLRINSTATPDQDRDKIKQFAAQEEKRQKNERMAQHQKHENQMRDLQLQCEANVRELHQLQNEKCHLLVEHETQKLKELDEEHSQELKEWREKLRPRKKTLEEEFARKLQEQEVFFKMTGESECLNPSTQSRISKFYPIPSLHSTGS
Chain of Sphingosine 1-phosphate receptor 1 (P21453 whole entry): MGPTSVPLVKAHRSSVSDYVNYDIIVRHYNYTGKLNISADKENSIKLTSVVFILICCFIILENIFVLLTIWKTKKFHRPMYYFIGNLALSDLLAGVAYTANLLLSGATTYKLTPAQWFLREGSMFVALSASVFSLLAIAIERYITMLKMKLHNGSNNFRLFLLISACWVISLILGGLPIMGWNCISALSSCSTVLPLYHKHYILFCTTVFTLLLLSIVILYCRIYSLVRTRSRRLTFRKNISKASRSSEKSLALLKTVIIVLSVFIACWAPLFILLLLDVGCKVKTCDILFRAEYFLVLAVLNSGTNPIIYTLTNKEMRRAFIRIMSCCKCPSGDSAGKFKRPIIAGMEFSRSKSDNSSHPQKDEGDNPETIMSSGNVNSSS
Chain of Non-receptor tyrosine-protein kinase TYK2 (P29597 whole entry): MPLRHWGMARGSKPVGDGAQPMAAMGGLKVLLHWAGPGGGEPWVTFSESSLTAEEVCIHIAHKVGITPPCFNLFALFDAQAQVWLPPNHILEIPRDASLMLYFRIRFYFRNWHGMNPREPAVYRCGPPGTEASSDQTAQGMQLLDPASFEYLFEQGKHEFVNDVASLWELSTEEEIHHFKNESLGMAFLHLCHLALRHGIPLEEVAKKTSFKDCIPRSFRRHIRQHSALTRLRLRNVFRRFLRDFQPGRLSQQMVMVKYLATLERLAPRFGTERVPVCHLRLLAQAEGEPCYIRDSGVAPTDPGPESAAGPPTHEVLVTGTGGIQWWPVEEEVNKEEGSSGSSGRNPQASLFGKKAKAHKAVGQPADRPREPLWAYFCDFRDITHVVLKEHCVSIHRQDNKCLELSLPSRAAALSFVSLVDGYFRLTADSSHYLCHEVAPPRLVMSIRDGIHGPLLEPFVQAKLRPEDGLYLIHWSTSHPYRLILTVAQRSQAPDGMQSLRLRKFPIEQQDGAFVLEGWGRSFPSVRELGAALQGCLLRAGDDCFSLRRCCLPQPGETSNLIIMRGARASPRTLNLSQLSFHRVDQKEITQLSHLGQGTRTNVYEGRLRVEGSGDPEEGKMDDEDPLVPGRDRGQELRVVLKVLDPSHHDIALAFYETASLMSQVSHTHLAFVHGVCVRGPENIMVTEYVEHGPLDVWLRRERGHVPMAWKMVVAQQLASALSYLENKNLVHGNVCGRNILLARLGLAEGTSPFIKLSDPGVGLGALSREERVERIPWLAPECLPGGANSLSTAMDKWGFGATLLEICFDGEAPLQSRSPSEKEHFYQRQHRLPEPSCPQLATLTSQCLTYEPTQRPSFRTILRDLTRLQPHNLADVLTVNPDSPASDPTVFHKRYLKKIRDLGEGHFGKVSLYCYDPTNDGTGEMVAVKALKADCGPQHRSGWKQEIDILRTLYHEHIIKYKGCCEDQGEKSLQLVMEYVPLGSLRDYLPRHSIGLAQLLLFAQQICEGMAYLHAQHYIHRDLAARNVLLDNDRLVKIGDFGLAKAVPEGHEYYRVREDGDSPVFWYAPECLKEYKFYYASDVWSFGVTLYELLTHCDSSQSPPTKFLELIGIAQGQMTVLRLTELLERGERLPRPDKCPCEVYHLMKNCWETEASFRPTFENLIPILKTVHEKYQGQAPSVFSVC

On to `CC(=O)N(C1=C(Cl)C(=O)c2ccccc2C1=O)C1CCCCC1`, for which the IC50 was 9500 nM (active) in test [1] and 7150 nM (active) at Hexokinase HKDC1. Besides, the EC50 in test [2] is 9510 nM (active).
In the case of `O=C1Nc2ccc3ncsc3c2C1=CNc1ccc(S(=O)(=O)Nc2ccccn2)cc1`, the Ki in test [3] is 251 nM (active); in test [4] it was 158 nM (active); in test [5], 794 nM (active); in test [6], 126 nM (active).
On to `Cc1ccc(NC2=C/C(=N\S(=O)(=O)c3cccs3)c3ccccc3C2=O)c(C)c1`, for which the AC50 in the test with INS1 was 404 nM (active).

The values are drawn from ChEMBL document CHEMBL1201862, “PubChem BioAssay data set” (2004).
